Data published in publication PMC10408569, “Recruitment of hexahydroquinoline as anticancer scaffold targeting inhibition of wild and mutants EGFR (EGFR^WT, EGFR^T790M, and EGFR^L858R)” (Journal of Enzyme Inhibition and Medicinal Chemistry, 2023).

Tests used:
[1] = system: MOLT-4; assay: NCI-60 anticancer screening (SRB); assay type: cell-based; details: Homo sapiens; MOLT-4, leukemia; one dose 10 μM; read-out: Growth Inhibition Percentage (GI %)
[2] = system: IGROV1; assay: NCI-60 anticancer screening (SRB); assay type: cell-based; details: Homo sapiens, IGROV-1; IGROV1, ovarian cancer; one dose 10 μM; read-out: Growth Inhibition Percentage (GI %)
[3] = system: UO-31; assay: NCI-60 anticancer screening (SRB); assay type: cell-based; details: Homo sapiens; UO-31, renal cancer; one dose 10 μM; read-out: Growth Inhibition Percentage (GI %)
[4] = target: EGFR^WT (Homo sapiens, UniProt P00533); assay: EGFR kinase inhibitory assay (HTRF)
[5] = system: NCI-H226; assay: NCI-60 anticancer screening (SRB); assay type: cell-based; details: Homo sapiens; NCI-H226, NSC lung cancer; one dose 10 μM; read-out: Growth Inhibition Percentage (GI %)
[6] = system: ACHN; assay: NCI-60 anticancer screening (SRB); assay type: cell-based; details: Homo sapiens, renal cancer, one dose 10 μM, read-out: Growth Inhibition Percentage (GI %)
[7] = system: MCF7; assay: NCI-60 anticancer screening (SRB); assay type: cell-based; details: Homo sapiens; MCF7, breast cancer; one dose 10 μM; read-out: Growth Inhibition Percentage (GI %)
[8] = system: BT-549; assay: NCI-60 anticancer screening (SRB); assay type: cell-based; details: Homo sapiens; BT-549, breast cancer; one dose 10 μM; read-out: Growth Inhibition Percentage (GI %)
[9] = system: HOP-92; assay: NCI-60 anticancer screening (SRB); assay type: cell-based; details: Homo sapiens; HOP-92, NSC lung cancer; one dose 10 μM; read-out: Growth Inhibition Percentage (GI %)
[10] = system: OVCAR-5; assay: NCI-60 anticancer screening (SRB); assay type: cell-based; details: Homo sapiens; OVCAR-5, ovarian cancer; one dose 10 μM; read-out: Growth Inhibition Percentage (GI %)
[11] = system: CCRF-CEM; assay: NCI-60 anticancer screening (SRB); assay type: cell-based; details: Homo sapiens, leukemia, one dose 10 μM, read-out: Growth Inhibition Percentage (GI %)
[12] = system: HS 578T; assay: NCI-60 anticancer screening (SRB); assay type: cell-based; details: Homo sapiens; HS 578T, breast cancer; one dose 10 μM; read-out: Growth Inhibition Percentage (GI %)
[13] = system: HCT-116; assay: NCI-60 anticancer screening (SRB); assay type: cell-based; details: Homo sapiens; HCT-116, colon cancer; one dose 10 μM; read-out: Growth Inhibition Percentage (GI %)
[14] = system: OVCAR-3; assay: NCI-60 anticancer screening (SRB); assay type: cell-based; details: Homo sapiens; OVCAR-3, ovarian cancer; one dose 10 μM; read-out: Growth Inhibition Percentage (GI %)
[15] = system: OVCAR-8; assay: NCI-60 anticancer screening (SRB); assay type: cell-based; details: Homo sapiens; OVCAR-8, ovarian cancer; one dose 10 μM; read-out: Growth Inhibition Percentage (GI %)
[16] = system: MALME-3M; assay: NCI-60 anticancer screening (SRB); assay type: cell-based; details: Homo sapiens, melanoma, one dose 10 μM, read-out: Growth Inhibition Percentage (GI %)
[17] = system: K-562; assay: NCI-60 anticancer screening (SRB); assay type: cell-based; details: Homo sapiens, K562; K-562, leukemia; one dose 10 μM; read-out: Growth Inhibition Percentage (GI %)
[18] = system: UACC-257; assay: NCI-60 anticancer screening (SRB); assay type: cell-based; details: Homo sapiens; UACC-257, melanoma; one dose 10 μM; read-out: Growth Inhibition Percentage (GI %)
[19] = system: LOX IMVI; assay: NCI-60 anticancer screening (SRB); assay type: cell-based; details: Homo sapiens, melanoma, one dose 10 μM, read-out: Growth Inhibition Percentage (GI %)
[20] = system: SK-MEL-2; assay: NCI-60 anticancer screening (SRB); assay type: cell-based; details: Homo sapiens; SK-MEL-2, melanoma; one dose 10 μM; read-out: Growth Inhibition Percentage (GI %)
[21] = system: U251; assay: NCI-60 anticancer screening (SRB); assay type: cell-based; details: Homo sapiens, U-251; U251, CNS cancer; one dose 10 μM; read-out: Growth Inhibition Percentage (GI %)
[22] = system: SW-620; assay: NCI-60 anticancer screening (SRB); assay type: cell-based; details: Homo sapiens; SW-620, colon cancer; one dose 10 μM; read-out: Growth Inhibition Percentage (GI %)
[23] = system: COLO 205; assay: NCI-60 anticancer screening (SRB); assay type: cell-based; details: Homo sapiens; COLO 205, colon cancer; one dose 10 μM; read-out: Growth Inhibition Percentage (GI %)
[24] = system: PC-3; assay: NCI-60 anticancer screening (SRB); assay type: cell-based; details: Homo sapiens; PC-3, prostate cancer; one dose 10 μM; read-out: Growth Inhibition Percentage (GI %)
[25] = system: MDA-MB-468; assay: NCI-60 anticancer screening (SRB); assay type: cell-based; details: Homo sapiens; MDA-MB-468, breast cancer; one dose 10 μM; read-out: Growth Inhibition Percentage (GI %)
[26] = system: SK-OV-3; assay: NCI-60 anticancer screening (SRB); assay type: cell-based; details: Homo sapiens; SK-OV-3, ovarian cancer; one dose 10 μM; read-out: Growth Inhibition Percentage (GI %)
[27] = system: SR; assay: NCI-60 anticancer screening (SRB); assay type: cell-based; details: Homo sapiens, leukemia, one dose 10 μM, read-out: Growth Inhibition Percentage (GI %)
[28] = system: A498; assay: NCI-60 anticancer screening (SRB); assay type: cell-based; details: Homo sapiens; A498, renal cancer; one dose 10 μM; read-out: Growth Inhibition Percentage (GI %)
[29] = target: EGFR^T790M (Homo sapiens, UniProt P00533, T790M); assay: biochemical
[30] = system: OVCAR-4; assay: NCI-60 anticancer screening (SRB); assay type: cell-based; details: Homo sapiens; OVCAR-4, ovarian cancer; one dose 10 μM; read-out: Growth Inhibition Percentage (GI %)
[31] = target: EGFR^L858R (Homo sapiens, UniProt P00533, L858R); assay: biochemical
Chain of EGFR^L858R (P00533 25-1210 L858R): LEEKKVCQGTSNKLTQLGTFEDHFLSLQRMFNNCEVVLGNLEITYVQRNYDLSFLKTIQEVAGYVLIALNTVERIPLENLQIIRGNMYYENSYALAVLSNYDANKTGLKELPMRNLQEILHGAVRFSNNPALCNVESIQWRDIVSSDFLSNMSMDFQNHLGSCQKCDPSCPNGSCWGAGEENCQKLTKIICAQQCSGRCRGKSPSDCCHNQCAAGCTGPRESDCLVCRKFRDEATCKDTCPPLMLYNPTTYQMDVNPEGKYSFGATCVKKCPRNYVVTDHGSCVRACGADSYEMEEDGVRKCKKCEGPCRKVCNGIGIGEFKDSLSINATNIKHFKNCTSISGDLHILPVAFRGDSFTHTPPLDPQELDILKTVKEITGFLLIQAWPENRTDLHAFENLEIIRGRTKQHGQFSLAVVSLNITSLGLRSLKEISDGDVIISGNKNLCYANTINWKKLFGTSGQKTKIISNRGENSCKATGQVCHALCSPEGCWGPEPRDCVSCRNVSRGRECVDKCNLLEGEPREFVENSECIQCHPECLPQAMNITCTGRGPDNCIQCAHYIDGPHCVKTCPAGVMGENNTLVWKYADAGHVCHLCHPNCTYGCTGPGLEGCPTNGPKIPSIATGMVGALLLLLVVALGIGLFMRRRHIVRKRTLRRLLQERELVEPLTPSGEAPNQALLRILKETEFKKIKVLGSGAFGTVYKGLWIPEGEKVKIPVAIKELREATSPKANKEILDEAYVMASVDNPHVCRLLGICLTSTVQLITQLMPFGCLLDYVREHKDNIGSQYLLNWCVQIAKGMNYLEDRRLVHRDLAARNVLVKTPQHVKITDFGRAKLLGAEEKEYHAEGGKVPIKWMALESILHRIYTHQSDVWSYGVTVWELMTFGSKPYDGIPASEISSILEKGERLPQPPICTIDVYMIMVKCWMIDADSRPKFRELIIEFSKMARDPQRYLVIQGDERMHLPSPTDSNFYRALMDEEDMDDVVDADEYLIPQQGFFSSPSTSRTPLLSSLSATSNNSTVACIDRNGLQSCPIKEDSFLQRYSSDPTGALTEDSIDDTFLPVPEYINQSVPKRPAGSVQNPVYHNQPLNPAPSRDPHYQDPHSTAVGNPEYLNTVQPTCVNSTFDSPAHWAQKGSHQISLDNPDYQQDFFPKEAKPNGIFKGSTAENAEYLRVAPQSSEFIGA

Chain of EGFR^T790M (P00533 25-1210 T790M): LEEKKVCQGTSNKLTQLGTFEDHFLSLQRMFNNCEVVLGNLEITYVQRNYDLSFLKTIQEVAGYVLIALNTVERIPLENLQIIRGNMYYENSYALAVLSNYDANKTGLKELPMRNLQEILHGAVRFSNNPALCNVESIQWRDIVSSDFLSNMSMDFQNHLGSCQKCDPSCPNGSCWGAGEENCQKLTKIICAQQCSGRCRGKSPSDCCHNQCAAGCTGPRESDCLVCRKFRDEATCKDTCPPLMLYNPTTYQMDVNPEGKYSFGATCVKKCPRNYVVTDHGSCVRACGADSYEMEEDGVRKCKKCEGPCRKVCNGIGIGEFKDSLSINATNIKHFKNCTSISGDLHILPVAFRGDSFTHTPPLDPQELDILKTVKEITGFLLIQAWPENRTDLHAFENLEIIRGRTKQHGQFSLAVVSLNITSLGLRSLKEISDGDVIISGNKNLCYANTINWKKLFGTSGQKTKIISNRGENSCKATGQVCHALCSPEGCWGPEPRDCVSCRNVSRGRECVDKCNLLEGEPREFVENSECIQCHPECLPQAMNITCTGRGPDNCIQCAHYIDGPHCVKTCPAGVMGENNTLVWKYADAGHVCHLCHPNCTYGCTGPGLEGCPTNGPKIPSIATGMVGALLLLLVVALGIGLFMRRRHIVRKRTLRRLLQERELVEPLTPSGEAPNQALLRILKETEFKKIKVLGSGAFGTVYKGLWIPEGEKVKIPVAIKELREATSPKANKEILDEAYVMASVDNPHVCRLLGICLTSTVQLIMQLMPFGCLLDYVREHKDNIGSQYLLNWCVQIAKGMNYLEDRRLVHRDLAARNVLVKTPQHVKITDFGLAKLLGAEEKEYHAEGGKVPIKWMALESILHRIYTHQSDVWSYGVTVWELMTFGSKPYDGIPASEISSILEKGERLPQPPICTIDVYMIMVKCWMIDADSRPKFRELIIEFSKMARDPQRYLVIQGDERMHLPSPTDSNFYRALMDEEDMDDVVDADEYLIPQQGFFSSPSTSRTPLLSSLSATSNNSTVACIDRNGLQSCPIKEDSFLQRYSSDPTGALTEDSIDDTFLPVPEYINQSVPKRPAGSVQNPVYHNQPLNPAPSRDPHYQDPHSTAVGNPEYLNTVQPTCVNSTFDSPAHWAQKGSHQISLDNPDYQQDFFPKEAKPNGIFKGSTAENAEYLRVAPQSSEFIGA
Chain of EGFR^WT (P00533 25-1210): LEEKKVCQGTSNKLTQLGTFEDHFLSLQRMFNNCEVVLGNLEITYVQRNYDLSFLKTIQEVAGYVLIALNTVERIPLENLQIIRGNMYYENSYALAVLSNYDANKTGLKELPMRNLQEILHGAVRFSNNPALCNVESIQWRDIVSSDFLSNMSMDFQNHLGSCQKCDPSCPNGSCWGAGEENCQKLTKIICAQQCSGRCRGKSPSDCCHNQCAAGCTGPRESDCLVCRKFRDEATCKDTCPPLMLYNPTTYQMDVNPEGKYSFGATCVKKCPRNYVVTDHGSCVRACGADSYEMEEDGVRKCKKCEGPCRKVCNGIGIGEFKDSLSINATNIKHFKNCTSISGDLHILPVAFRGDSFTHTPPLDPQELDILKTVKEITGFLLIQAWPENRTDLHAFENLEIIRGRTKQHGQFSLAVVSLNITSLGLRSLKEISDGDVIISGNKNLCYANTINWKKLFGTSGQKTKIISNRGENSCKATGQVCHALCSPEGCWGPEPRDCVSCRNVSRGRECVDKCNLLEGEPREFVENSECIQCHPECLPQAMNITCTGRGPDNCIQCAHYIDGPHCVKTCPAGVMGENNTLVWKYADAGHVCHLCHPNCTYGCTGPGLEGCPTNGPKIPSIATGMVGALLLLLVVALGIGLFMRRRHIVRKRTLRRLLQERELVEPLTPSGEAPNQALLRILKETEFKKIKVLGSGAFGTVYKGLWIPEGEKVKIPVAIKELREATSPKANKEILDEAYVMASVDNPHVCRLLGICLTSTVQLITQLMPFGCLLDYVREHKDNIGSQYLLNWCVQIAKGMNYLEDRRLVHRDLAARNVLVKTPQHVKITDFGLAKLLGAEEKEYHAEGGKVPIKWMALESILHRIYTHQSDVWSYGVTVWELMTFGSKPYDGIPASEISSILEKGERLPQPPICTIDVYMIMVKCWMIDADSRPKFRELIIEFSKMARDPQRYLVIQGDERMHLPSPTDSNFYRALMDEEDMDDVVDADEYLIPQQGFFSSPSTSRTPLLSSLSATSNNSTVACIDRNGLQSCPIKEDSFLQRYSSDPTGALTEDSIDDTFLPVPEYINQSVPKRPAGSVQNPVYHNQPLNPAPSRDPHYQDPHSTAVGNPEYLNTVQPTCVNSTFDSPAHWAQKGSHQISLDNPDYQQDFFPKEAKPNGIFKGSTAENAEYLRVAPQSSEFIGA

| SMILES | inhibition at 10 µM [1] | inhibition at 10 µM [2] | inhibition at 10 µM [3] | IC50 [4] | inhibition at 10 µM [5] | melting point | inhibition at 10 µM [6] | inhibition at 10 µM [7] | inhibition at 10 µM [8] | inhibition at 10 µM [9] | inhibition at 10 µM [10] | inhibition at 10 µM [11] | inhibition at 10 µM [12] | inhibition at 10 µM [13] | inhibition at 10 µM [14] | inhibition at 10 µM [15] | inhibition at 10 µM [16] | inhibition at 10 µM [17] | inhibition at 10 µM [18] | inhibition at 10 µM [19] | other results |
| --- | --- | --- | --- | --- | --- | --- | --- | --- | --- | --- | --- | --- | --- | --- | --- | --- | --- | --- | --- | --- | --- |
| CCOC(=O)C1=C(N)N(c2ccccc2)C2=C(C(=O)CC(C)(C)C2)C1c1ccc(Cl)cc1 (racemic) [8c, (±)-Ethyl 2-amino-4–(4-chlorophenyl)-7,7-dimethyl-5-oxo-1-phenyl-1,4,5,6,7,8-hexahydroquinoline-3-carboxylate] | 99% | 40% | 71% | 194 ± 90 nM | 30% | 215 to 217 °C | 78% | 83% | 57% | 30% | 42% | 85% | 28% | 81% | 48% | 39% | 84% | 82% | 72% | 59% | inhibition at 10 µM [20]: 70%; inhibition at 10 µM [21]: 58%; inhibition at 10 µM [22]: 72%; inhibition at 10 µM [23]: 118%; inhibition at 10 µM [24]: 78%; inhibition at 10 µM [25]: 67%; inhibition at 10 µM [26]: 56%; inhibition at 10 µM [27]: 87%; inhibition at 10 µM [28]: 33%; IC50 [29]: 820 ± 6 nM; inhibition at 10 µM [30]: 71%; IC50 [31]: 812 ± 5 nM |
| CCOC(=O)C1=C(N)N(c2ccc(Cl)cc2)C2=C(C(=O)CC(C)(C)C2)C1c1ccc(Cl)cc1 (racemic) [8e, (±)-Ethyl 2-amino-1,4-bis (4-chlorophenyl)-7,7-dimethyl-5-oxo-1,4,5,6,7,8-hexahydroquinoline-3-carboxylate] | 89% | 12% | 34% | 300 ± 120 nM | < 10% | 220 to 222 °C | 32% | 56% | 21% | < 10% | < 10% | 61% | 44% | 45% | 16% | 30% | 39% | 63% | 56% | 11% | inhibition at 10 µM [20]: < 10%; inhibition at 10 µM [21]: 31%; inhibition at 10 µM [22]: 33%; inhibition at 10 µM [23]: 53%; inhibition at 10 µM [24]: 58%; inhibition at 10 µM [25]: 33%; inhibition at 10 µM [26]: < 10%; inhibition at 10 µM [27]: 52%; inhibition at 10 µM [28]: < 10%; IC50 [29]: 693 ± 5 nM; inhibition at 10 µM [30]: 54%; IC50 [31]: 351 ± 2 nM |
